The values that follow come from patent US10179913B2, “MicroRNA-328 anti-sense composition and therapeutic use” (KAOHSIUNG MEDICAL UNIVERSITY, priority 2015, dated 2019).

Entries after “also recorded” stand apart in the source; their conditions may differ. Marks after values point to notes of the source that are not given here. l = locked nucleic acid (LNA); d = 2'-deoxy (DNA)

Data set [1] deals with myopia-induced C57BL/6J mice. As to the kind of experiment: Example 5: validation of DNA 16mer and LNA 403 versus atropine in myopia-induced mice. In kind it is in vivo. To be noted: for Mean of delta AXL: right eye covered 4 weeks, 30 μL on day 30, 37 and 44, day 51. How it is done: (§1) The 21 days old C57BL/6J mice were purchased from the National Laboratory Animal Center, Taiwan. All animal experiments were in compliance with the ARVO Statement for the Use of Animals in Ophthalmic and Vision Research. The procedure of myopia induction is described briefly as the following: Right eyes of the 23 days old mice were covered for 4 weeks to induce myopia (i.e. nearsightedness) and the left eyes were uncovered. Then the right eyes of the myopia-induced mice were treated with 30 μL of saline (i.e. negative control group), 1% atropine (i.e. positive control group), DNA16mer or LNA403 at 1 μM on 30th, 37th and 44th day. Mice were sacrificed on 51th day and the eyes were collected. The isolated eyes were photographed under a dissection microscope and the axial lengths were measured using imageJ and a proprietary software for automatic measure. Myopia (nearsightedness) causes elongation of axial length, which is the major pathological change in myopia. The difference of axial length (i.e. delta axial length) between the covered right eye and the non-covered left eye of the same mouse indicates the severity of myopia. Statistical evaluation was done by using Mann-Whitney U test. Analysis with p-values <0.05 being considered significant.

Data set [2] has as its system myopia-induced C57BL/6J mice. As to the kind of experiment: Example 4: efficacy in myopia-induced mice, delta axial length. Format: in vivo. The settings on record: for reduction of delta axial length compared to control group: 1 μM on day 30, 37 and 44, versus saline; for activity in treating myopia in mice (in words): decrease of average axial length; for Delta axial length, mm mean (SD): right (myopia) minus left eye, 30 μL to right eye on day 30, 37 and 44, eyes collected day 51. As to the method:
as §1, with “covered” for “covered for 4 weeks”, “(i.e.” for “(i.e. negative”, “DNA16mer, DNA17mer, LNA403, LNA404,” for “1% atropine (i.e. positive control group), DNA16mer”, “LNA405,” for “LNA403”, “[…]” for “imageJ and a proprietary software for automatic measure.”, “p-values<0.05” for “p-values <0.05”

Data set [3] concerns miR-328. As to the kind of experiment: In vitro inhibition of miR-328 expression by antisense oligonucleotides transfected into ARPE-19 RPE cells (qRT-PCR, normalized to U6). In kind it is cell-based, human. The settings on record: for inhibitory effect on miR-328 expression: RPE cells (ARPE-19), Lipofectamine 2000 transfection, 24 hours; for inhibition of miR-328 expression in vitro (in words): RPE cells, 30, 50 and 100 nM. How it is done: Cell Culture, Treatments, and Transfection
An RPE cell line called “ARPE-19” was grown in Dulbecco's modified Eagle's medium (DMEM)/F12 medium. The cell line was grown with 1% penicillin/streptomycin and 10% heat-inactivated fetal bovine serum (FBS) at 37° C. in a humidified atmosphere of 95% air/[…] carbon dioxide (CO2). To conduct the transfection experiments, cells were seeded into a 12-well plate at a density of 1×10^5 cells/well. After achieving 70% confluence in a well, antisense oligonucleotides (concentrations of 30, 50 and 100 nM) were transfected with Lipofectamine 2000 (Invitrogen) according to the manufacturer's instructions. After 24 hours of incubation, cells were lysed for further studies.
Detect the Inhibition of miR-328 Expression by Antisense Oligonucleotides
Total RNA was extracted from cultured cells using Trizol according to the manufacturer's instructions. RNA purity was checked using A260/A280 readings. miR-328 was first reversed transcribed to miR-328 cDNA using the following procedure: 5 ng of RNA was reverse transcribed with miR-328 specific primer and MultiScribe reverse transcriptase kit (Applied Biosystems). To measure the miR-328 expression, quantitative real-time PCR was performed on an ABI 7500 real-time PCR machine (Applied Biosystems) with miR-328 specific probe according to manufacturer's instructions (Applied Biosystems). The inhibitory effect by antisense oligonucleotides was evaluated by measuring the level of miR-328 cDNA by quantitative real-time PCR. The expression level of miR-328 was normalized to that of a small non-coding nuclear RNA U6 as the internal control.

Data set [4] is described as follows: Safety in animal studies. Format: in vivo.
Data set [5] has as its system myopia-induced C57BL/6J mice. As to the kind of experiment: Example 6: confirmation of DNA 16mer by a CRO in myopia-induced mice. Format: in vivo. The source says:
The procedure of myopia induction is: The 21 days old C57BL/6J mice were purchased from the National Laboratory Animal Center, Taiwan. All animal experiments were in compliance with the ARVO Statement for the Use of Animals in Ophthalmic and Vision Research. The procedure of myopia induction is described briefly as the following: Right eyes of the 23 days old mice were covered for 4 weeks to induce myopia and the left eyes were uncovered. Then the right eyes of the myopia-induced mice were treated with […], of saline (i.e. negative control group), 1% atropine (i.e. positive control group), 10 nM, 100 nM, and 1 μM of DNA 16mer on 30th, 37th and 44th day. Mice were sacrificed on 51th day and the eyes were collected. The isolated eyes were photographed under a dissection microscope and the axial lengths were measured using imageJ and a proprietary software for automatic measure. Myopia (nearsightedness) causes elongation of axial length, which is the major pathological change in myopia. The difference of axial length (i.e. delta axial length) between the covered right eye and the non-covered left eye of the same mouse indicates the severity of myopia.

As to “5′-+C*+G*+G*+A*A*G*G*G*C*A*G*A*G*A*G*G*+G*+C*+C*+A-3′ (antisense CGGAAGGGCAGAGAGGGCCA; sugars from the 5' end l4 d12 l4, all phosphorothioate, methylation of C not given here) [LNA403, LNA-modified and PS bond-modified anti-sense miR-328 oligonucleotide, 20 mer]”, in data set [1] (1 μM), the “efficacy in reducing elongation of eyeball compared with 1% atropine (in words)” value was “more effective than 1% atropine”. For the same compound, the “Mean of delta AXL” value in data set [1] (1 μM) was −0.052. In addition, in data set [2], the “reduction of delta axial length compared to control group” value (“reduction of delta axial length” for short) is listed as 0.054 mm. In addition, the “activity in treating myopia in mice (in words)” value in data set [2] (1 μM) was “effective in treating myopia in mice”; in data set [2] (1 μM, listed as 403) it was “exhibited an activity for treating myopia”. Besides, in data set [2] (1 μM), the “Delta axial length, mm mean (SD)” value is recorded as −0.036 (0.079)* mm. Besides, the “inhibitory effect on miR-328 expression” value came out at 97% in data set [3] (30 nM), 97% in data set [3] (50 nM) and 90% in data set [3] (100 nM). Besides, the “inhibition of miR-328 expression in vitro (in words)” value (“inhibition of miR-328 expression” for short) in data set [3] is given as “inhibited”.
As for “5′-+G*+A*+A*+G*G*G*C*A*G*A*G*A*G*G*+G*+C*+C*+A-3′ (antisense GAAGGGCAGAGAGGGCCA; sugars from the 5' end l4 d10 l4, all phosphorothioate, methylation of C not given here) [LNA405, LNA-modified and PS bond-modified anti-sense miR-328 oligonucleotide, 18 mer]”, the “reduction of delta axial length” value in data set [2] amounted to 0.035 mm. For the same compound, the “Delta axial length, mm mean (SD)” value in data set [2] (1 μM) is listed as −0.017 (0.054) mm. The “inhibitory effect on miR-328 expression” value is recorded as 98% in data set [3] (30 nM), 98% in data set [3] (50 nM) and 99% in data set [3] (100 nM). Besides, the “inhibition of miR-328 expression” value in data set [3] is “inhibited”.
Regarding “5′-+G*+G*+A*+A*G*G*G*C*A*G*A*G*A*G*G*+G*+C*+C*+A-3′ (antisense GGAAGGGCAGAGAGGGCCA; sugars from the 5' end l4 d11 l4, all phosphorothioate, methylation of C not given here) [LNA404, LNA-modified and PS bond-modified anti-sense miR-328 oligonucleotide, 19 mer]”, in data set [2], the “reduction of delta axial length” value is given as 0.025 mm. Besides, the “Delta axial length, mm mean (SD)” value in data set [2] (1 μM) is −0.007 (0.100) mm. Also, the “inhibitory effect on miR-328 expression” value in data set [3] (30 nM) came out at 98%; in data set [3] (50 nM), 98%; in data set [3] (100 nM), 99%. Moreover, the “inhibition of miR-328 expression” value in data set [3] was “inhibited”.
“5′-AAGGGCAGAGAGGGCCA-3′ (DNA, backbone not given here) [DNA 17mer, anti-sense miR-328 oligodeoxyribonucleotide]”: the “reduction of delta axial length” value in data set [2] was 0.065 mm. The “activity in treating myopia in mice (in words)” value in data set [2] (1 μM, listed as 17mer) is “exhibited an activity for treating myopia”; in data set [2] (1 μM, listed as DNA17mer), “effective in treating myopia in mice”. Further, in data set [2] (1 μM, versus saline, Mann-Whitney U test), the “average delta axial length compared with control animals (in words)” value is “statistically significantly smaller”. The “Delta axial length, mm mean (SD)” value in data set [2] (1 μM) is −0.047 (0.073)* mm. Also, the “safety in animal studies (in words)” value in data set [4] is recorded as “safe”. In addition, the “inhibitory effect on miR-328 expression” value in data set [3] (30 nM) was found to be 43%; in data set [3] (50 nM) it was 41%; in data set [3] (100 nM) it was 48%. Further, the “inhibition of miR-328 expression” value in data set [3] is on record as “inhibited”.
Consider “5′-GGGCAGAGAGGGCCA-3′ (DNA, backbone not given here) [15mer, anti-sense miR-328 oligodeoxyribonucleotide]”, for which, in data set [3], the “inhibition of miR-328 expression” value is listed as “did not show any activity; also recorded: no inhibitory effect”.
Turning to `CN1[C@@H]2CC[C@H]1C[C@@H](OC(=O)C(CO)c1ccccc1)C2` (stereo partly shown) [Atropine, atropine, reference compound], the “Mean of delta AXL” value in data set [1] (1% atropine) is recorded as −0.037. Also, the “Delta axial length Mean” value in data set [5] (1% atropine) is given as −0.060. In addition, the “right eye axial, mm Mean” value in data set [5] (1% atropine to right (myopia) eye) is listed as 3.049 mm. Further, in data set [5] (1% atropine to right eye, left eye uncovered), the “left eye axial, mm Mean” value is reported as 3.108 mm.
